Tests used:
[1] = molecular target: T1, B16F10 cellular tyrosinase (Mus musculus, UniProt P11344); assay: Cellular anti-tyrosinase activity assay in IBMX/α-MSH-stimulated cells; type: cell-based, murine; conditions: 72 h; for cellular tyrosinase inhibitory activity: IBMX + α-MSH; for effect on cellular tyrosinase activity enhanced by stimulators: B16F10, 5, 10, 20 µM, IBMX 200 µM + α-MSH 1 µM
T1 construct: the anti-tyrosinase effects of these derivatives were investigated using B16F10 cells; host or cells: B16F10 murine melanoma cells
T1 sequence (P11344 19-533): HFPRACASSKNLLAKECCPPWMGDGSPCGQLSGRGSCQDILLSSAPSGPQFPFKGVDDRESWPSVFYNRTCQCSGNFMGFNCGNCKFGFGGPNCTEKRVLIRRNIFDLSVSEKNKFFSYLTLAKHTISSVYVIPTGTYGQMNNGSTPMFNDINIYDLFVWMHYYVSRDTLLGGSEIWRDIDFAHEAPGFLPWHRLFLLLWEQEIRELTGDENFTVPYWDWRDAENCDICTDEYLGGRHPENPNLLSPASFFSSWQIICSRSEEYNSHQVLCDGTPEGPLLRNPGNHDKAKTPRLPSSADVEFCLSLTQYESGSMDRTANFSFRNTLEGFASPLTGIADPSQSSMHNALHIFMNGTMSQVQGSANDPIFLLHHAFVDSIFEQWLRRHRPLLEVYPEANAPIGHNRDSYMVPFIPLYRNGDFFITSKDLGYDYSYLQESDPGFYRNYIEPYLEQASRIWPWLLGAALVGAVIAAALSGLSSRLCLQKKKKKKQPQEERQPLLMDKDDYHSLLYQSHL
Procedure: To examine the origin of the anti-melanogenic effects of (Z)-BPT derivatives 1 and 2, the anti-tyrosinase effects of these derivatives were investigated using B16F10 cells. […] After 72 h of incubation, the effects of 1 and 2 on cellular tyrosinase activity were analyzed.
Briefly, B16F10 melanoma cells were seeded in a 6-well plate at a density of 1 × 10^5 cells/well and allowed to adhere to the bottom of each well under identical conditions to the cell culture. […] After incubation for 1 h, the tyrosinase activity of the cells was increased by treatment with 200 µM IBMX and 1 µM α-MSH. The cells were incubated for 72 h under identical conditions to cell culture before being rinsed twice with PBS, exposed to a 100 µL lysis buffer solution consisting of 90 µL phosphate buffer (50 mM) at pH 6.5, 5 µL PMSF (2 mM), and 5 µL Triton X-100 (20%), and then incubated for 30 min at −80 °C. The cell lysates were placed into microcentrifuge tubes after defrosting and they were centrifuged at 12,000 rpm at 4 °C for 30 min. The supernatants (80 µL) of the lysates were combined with 20 µL of 10 mM L-DOPA in a 96-well plate. Using a microplate reader used for the melanin content assay, the mixture’s absorbances were measured every 10 min for 1 h at 37 °C and 492 nm. Each experiment was performed independently in triplicates.
Figure 8 Anti-tyrosinase activities of (Z)-BPT derivatives 1 and 2 in B16F10 cells. […] (A) Derivative 1 and (B) derivative 2. Data are presented as the mean ± standard error of the mean. ^### p < 0.001; * p < 0.05, ** p < 0.01, and *** p < 0.001.

[2] = DPPH radical scavenging assay; conditions: 1 mM, 30 min in the dark
Procedure: The 2,2-diphenyl-1-picrylhydrazyl (DPPH) radical scavenging capacity of the (Z)-BPT derivatives (1 mM) was investigated using L-ascorbic acid (1 mM, vitamin C) as a positive control. […] L-Ascorbic acid scavenged 97.1% of the DPPH radical, whereas (Z)-BPT derivative 1 with a 4-hydroxyl substituent on the β-phenyl ring scavenged 46.5% of the DPPH radical.
The antioxidant properties of (Z)-BPT derivatives 1–14 against DPPH (2,2-diphenyl-1-picrylhydrazyl) radicals were examined using a DPPH radical scavenging assay, as previously described with minor modifications. DPPH solution (180 µL, 0.2 mM) in methanol was mixed with a (Z)-BPT derivative solution (1–14, 20 µL, 10 mM) in dimethyl sulfoxide in each well of a 96-well plate, and the mixture was kept for 30 min in the dark at room temperature. The absorbance at 517 nm was measured using a VersaMax ™ microplate reader (Molecular Devices, Sunnyvale, CA, USA). The capacity of the derivatives to scavenge DPPH radicals was compared with that of L-ascorbic acid, which was used as the positive control. Each experiment was run independently in triplicates.
Figure 10 The radical scavenging effect of (Z)-BPT derivatives on DPPH. The DPPH radical scavenging activities of test samples (1 mM) were assayed after being left in the dark for 30 min. Distilled water and dimethyl sulfoxide (DMSO) were utilized as the solvents for the positive control L-ascorbic acid and the (Z)-BPT derivatives, respectively. Asterisks (***) represent a significant difference between L-ascorbic acid and the (Z)-BPT derivatives, and results are expressed as the mean ± standard error of three different experiments. *** p < 0.001.

[3] = test system: tyrosinase protein expression in B16F10 cells; assay: Western blot of tyrosinase protein in IBMX/α-MSH-stimulated cells; type: cell-based, murine; conditions: for tyrosinase expression level relative to untreated control: B16F10, 20 µM, IBMX 200 µM + α-MSH 1 µM, stimulator alone 6.6-fold (for 1), 5.7-fold (for 2); for effect on tyrosinase expression levels: B16F10, 5, 10, 20 µM, IBMX + α-MSH
Procedure: We investigated whether the derivatives 1 and 2 could influence the expression of tyrosinase protein using Western blotting. […] At 20 µM, derivatives 1 and 2 reduced the tyrosinase expression levels that increased during the stimulator treatment to 4.4- and 3.1-fold, respectively, implying that derivatives 1 and 2 may, in part, contribute to their anti-melanogenic actions by inhibiting tyrosinase expression.
After stimulating murine melanoma (B16F10) cells with α-MSH and IBMX for 24 h in the presence or absence of the tested derivatives at the indicated concentrations, the cells were lysed with lysis buffer containing protease and phosphatase inhibitors. Protein concentrations were determined using a BCA protein assay kit, according to the manufacturer’s instructions (Pierce, Rockford, IL, USA). Lysate proteins in each sample (10–20 µg) were subjected to 9% sodium dodecyl sulfate–polyacrylamide gel electrophoresis and electrophoretically transferred to a PVDF membrane (Millipore, Billerica, MA, USA) using a semi-dry system (Bio-Rad, Hercules, CA, USA). The membranes were incubated with 5% non-fat milk in TBST (0.1 M Tris-HCl, pH 7.5, 1.5 M NaCl, and 1% Tween 20) for 2 h. After blocking, the membranes were incubated with primary antibodies at 4 °C overnight. The following antibodies were used: tyrosinase and β-actin primary antibodies, as well as horseradish peroxidase-conjugated anti-mouse and anti-goat secondary antibodies (Santa Cruz Biotechnology, Dallas, TX, USA). The protein bands were visualized using the SuperSignal West Pico Chemiluminescence assay kit (Advansta, San Jose, CA, USA) and the Davinch–Chem program (Davinch-K, Seoul, Republic of Korea). The relative intensities were acquired using CS Analyzer 3.2 (Densitograph) image analysis software (http://www.attokorea.co.kr, accessed on 21 November 2022).
Figure 13 Effects of (Z)-BPT derivatives 1 and 2 on tyrosinase expression. Tyrosinase expression levels were evaluated in the presence of a stimulator (1 µM of α-MSH plus 200 µM of IBMX) with various concentrations (5, 10, and 20 µM) of derivatives 1 and 2 in B16F10 cells. ^### p < 0.001; * p < 0.05, and ** p < 0.01.

For O=C1N=C(c2ccccc2)S/C1=C\c1ccc(O)cc1 [Compound 1, (Z)-5-(4-Hydroxybenzylidene)-2-phenylthiazol-4(5H)-one], the “cellular tyrosinase inhibitory activity” value ([1]; B16F10, 20 µM) was “stronger inhibitory activity than kojic acid”, the “effect on cellular tyrosinase activity enhanced by stimulators” value [1] was “dose-dependently and significantly decreased” and the “DPPH radical scavenging activity” value [2] was 46.5%. The “tyrosinase expression level relative to untreated control” value [3] was 4.4 fold and the “effect on tyrosinase expression levels” value [3] was “significantly reduced the tyrosinase expression levels in a dose-dependent manner”.

With O=C1N=C(c2ccccc2)S/C1=C\c1ccc(O)cc1O [Compound 2, (Z)-5-(2,4-Dihydroxybenzylidene)-2-phenylthiazol-4(5H)-one] the “cellular tyrosinase inhibitory activity” value ([1]; B16F10, 5 µM) was “comparable to that of 20 µM kojic acid”, the “cellular tyrosinase inhibitory activity” value ([1]; B16F10, 20 µM) was “reduced the cellular tyrosinase activity to the levels observed in the untreated control” and the “effect on cellular tyrosinase activity enhanced by stimulators” value [1] was “dose-dependently and significantly decreased”. The “DPPH radical scavenging activity” value [2] was 66.9%, the “tyrosinase expression level relative to untreated control” value [3] was 3.1 fold and the “effect on tyrosinase expression levels” value [3] was “significantly reduced the tyrosinase expression levels in a dose-dependent manner”.

From publication PMC10144242, “Design, Synthesis, In Vitro, and In Silico Insights of 5-(Substituted benzylidene)-2-phenylthiazol-4(5H)-one Derivatives: A Novel Class of Anti-Melanogenic Compounds” (Molecules, 2023)
